Assay results taken from ChEMBL document CHEMBL1135003, “Synthesis of aglycon analogues of sarmentosin and their bioactivity of lymphocyte proliferation” (2002).

Experiments:
Type in all cases: functional
[1] = In vitro effect on the proliferation of T lymphocytes of mouse splenocytes at 0.2 umol/L to show the cell-mediated immunity by [3H]thymidine incorporation
[2] = In vitro effect on the proliferation of T lymphocytes of mouse splenocytes at 2 umol/L to show the cell-mediated immunity by [3H]thymidine incorporation
[3] = In vitro effect on the proliferation of B lymphocytes of mouse splenocytes at 20 umol/L to show the antibody formation by [3H]thymidine incorporation
[4] = In vitro effect on the proliferation of B lymphocytes of mouse splenocytes at 0.2 umol/L to show the antibody formation by [3H]thymidine incorporation
[5] = In vitro effect on the proliferation of T lymphocytes of mouse splenocytes at 20 umol/L to show the cell-mediated immunity by [3H]thymidine incorporation
[6] = In vitro effect on the proliferation of B lymphocytes of mouse splenocytes at 2.0 umol/L to show the antibody formation by [3H]thymidine incorporation

Row | Structure (SMILES) | Activity [1] | Activity [2] | Activity [3] | Activity [4] | Activity [5] | Activity [6]
1 | N#C/C(=C\COc1ccccc1)CO | 100% | 113% | 45% | 51% | 131% | 48%
2 | N#C/C(=C\COC(=O)c1ccc(Cl)cc1Cl)CO | 119% | 94% | 73% | 68% | 131% | 69%
3 | COc1ccc(COC/C=C(\C#N)CO)cc1 | 93% | 54% | 38% | 169% | 37% | 71%
4 | N#C/C(=C\COC(=O)c1ccc(F)cc1Cl)CO | 123% | 98% | 113% | 151% | 29% | 151%
5 | COc1ccc(C(=O)OC/C=C(\C#N)CO)cc1 | 100% | 63% | 31% | 109% | 25% | 86%
6 | COc1ccc(OC/C=C(\C#N)CO)cc1 | 101% | 114% | 79% | 81% | 80% | 77%
7 | N#C/C(=C\COC(=O)c1ccccc1)CO | 97% | 68% | 67% | 137% | 23% | 73%
8 | N#C/C(=C\COC(=O)/C=C/c1ccccc1)CO | 80% | 62% | 20% | 96% | 38% | 69%
